Data as given in patent US20260022142A1, “MACROCYCLIC IMMUNOMODULATORS” (Bristol-Myers Squibb Company, priority 2022, published 2026).
Bridge positions count the residues as written; N and C are the ends. Square brackets hold non-standard residues; d marks the D form. Peptide text beside a SMILES is read from it. * marks the point of attachment. ξ: configuration not given here. Bip = N[C@@H](Cc1ccc(-c2ccccc2)cc1)C(=O)O; Phe(3-Me) = Cc1cccc(C[C@H](N)C(=O)O)c1; ξBip = NC(Cc1ccc(-c2ccccc2)cc1)C(=O)O; 4Pal = N[C@@H](Cc1ccncc1)C(=O)O; Cha = N[C@@H](CC1CCCCC1)C(=O)O; Cit = NC(=O)NCCC[C@H](N)C(=O)O; Carboxymethyl = O=C(O)C*; Orn = NCCC[C@H](N)C(=O)O; Aun = NCCCCCCCCCCC(=O)O; Dab = NCC[C@H](N)C(=O)O; Dap = NC[C@H](N)C(=O)O; ξD = NC(CC(=O)O)C(=O)O; AEEA = NCCOCCOCC(=O)O

The compounds below were run against T1, PD-1/PD-L1 interaction (PE-labeled human PD-L1-Ig binding to Jurkat cell line over-expressing human PD-1) (Homo sapiens, UniProt Q15116) (assay: Jurkat-PD-1 Cell Binding High-Content Screening Assay (CBA)). Conditions: Jurkat cell line over-expressing human PD-1; PE-labeled PD-L1-Ig 20 nM final; read-out: Jurkat hPD1-PDL1 IC50.
T1 construct: expressed in transfected cells; host or cells: Jurkat
T1 sequence (Q15116 25-288): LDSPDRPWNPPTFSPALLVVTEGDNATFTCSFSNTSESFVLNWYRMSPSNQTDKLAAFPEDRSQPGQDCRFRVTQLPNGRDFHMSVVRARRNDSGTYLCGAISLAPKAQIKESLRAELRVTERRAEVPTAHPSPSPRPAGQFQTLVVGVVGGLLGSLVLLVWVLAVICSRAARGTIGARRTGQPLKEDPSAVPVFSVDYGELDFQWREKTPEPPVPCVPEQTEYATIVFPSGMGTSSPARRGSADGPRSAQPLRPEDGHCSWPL
Format: cell-based
Summary of the method: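 Jurkat cells stably over-expressing human PD-1 were seeded in DMEM with 10% fetal calf serum and pre-incubated with compound for 2 h at 37° C. PE-labeled human PD-L1-Ig was then added at 20 nM final for 1 hour, after which cells were fixed with paraformaldehyde, Hoechst-stained and imaged by high-content microscopy.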
Compound `Cc1cccc(C[C@@H]2NC(=O)[C@H](CC(=O)O)NC(=O)[C@H](Cc3ccncc3)NC(=O)[C@H](Cc3ccc(OCC(=O)O)cc3)NC(=O)CSC[C@@H](C(=O)NCCOCCOCC(=O)NCCCCCCCCCCC(=O)O)NC(=O)[C@H]([C@@H](C)O)NC(=O)[C@H](C(C)C)NC(=O)[C@H](CC3CCCCC3)NC(=O)[C@H](CCN)NC(=O)[C@@H](CC(C)C)NC(=O)[C@H](CCCN)NC(=O)[C@H](C(C)C)NC(=O)[C@H](Cc3ccc(-c4ccccc4)cc3)NC(=O)[C@H](C(C)C)NC2=O)c1` [Compound 1162] ({CH2CO}-Y(Carboxymethyl)[4Pal]D[Phe(3-Me)]V[Bip]V[Orn][dL][Dab][Cha]VTC[AEEA][Aun]-OH; thioether N-14) has an IC50 of 20.8 nM.
`Cc1cccc(C[C@@H]2NC(=O)[C@H](CC(=O)O)NC(=O)[C@H](Cc3ccncc3)NC(=O)[C@H](Cc3ccc(OCC(=O)O)cc3)NC(=O)CSC[C@@H](C(=O)N[C@@H](CN)C(=O)NCCCCCCCCCCC(=O)O)NC(=O)[C@H]([C@@H](C)O)NC(=O)[C@H](C(C)C)NC(=O)[C@H](CC3CCCCC3)NC(=O)[C@H](CCN)NC(=O)[C@@H](CC(C)C)NC(=O)[C@H](CCCN)NC(=O)[C@H](C(C)C)NC(=O)[C@H](Cc3ccc(-c4ccccc4)cc3)NC(=O)[C@H](C(C)C)NC2=O)c1` [Compound 1163] ({CH2CO}-Y(Carboxymethyl)[4Pal]D[Phe(3-Me)]V[Bip]V[Orn][dL][Dab][Cha]VTC[Dap][Aun]-OH; thioether N-14) showed an IC50 of 55.1 nM.
Compound `Cc1cccc(C[C@@H]2NC(=O)[C@H](CC(=O)O)NC(=O)[C@H](Cc3ccncc3)NC(=O)[C@H](Cc3ccc(OCC(=O)O)cc3)NC(=O)CSC[C@@H](C(=O)N[C@@H](CCN)C(=O)NCCCCCCCCCCC(=O)O)NC(=O)[C@H]([C@@H](C)O)NC(=O)[C@H](C(C)C)NC(=O)[C@H](CC3CCCCC3)NC(=O)[C@H](CCN)NC(=O)[C@@H](CC(C)C)NC(=O)[C@H](CCCN)NC(=O)[C@H](C(C)C)NC(=O)[C@H](Cc3ccc(-c4ccccc4)cc3)NC(=O)[C@H](C(C)C)NC2=O)c1` [Compound 1164] ({CH2CO}-Y(Carboxymethyl)[4Pal]D[Phe(3-Me)]V[Bip]V[Orn][dL][Dab][Cha]VTC[Dab][Aun]-OH; thioether N-14) has an IC50 of 122 nM.
For `Cc1cccc(C[C@@H]2NC(=O)[C@H](CC(=O)O)NC(=O)[C@H](Cc3ccncc3)NC(=O)[C@H](Cc3ccc(OCC(=O)O)cc3)NC(=O)CSC[C@@H](C(=O)N[C@@H](CCCN)C(=O)NCCCCCCCCCCC(=O)O)NC(=O)[C@H]([C@@H](C)O)NC(=O)[C@H](C(C)C)NC(=O)[C@H](CC3CCCCC3)NC(=O)[C@H](CCN)NC(=O)[C@@H](CC(C)C)NC(=O)[C@H](CCCN)NC(=O)[C@H](C(C)C)NC(=O)[C@H](Cc3ccc(-c4ccccc4)cc3)NC(=O)[C@H](C(C)C)NC2=O)c1` [Compound 1165] ({CH2CO}-Y(Carboxymethyl)[4Pal]D[Phe(3-Me)]V[Bip]V[Orn][dL][Dab][Cha]VTC[Orn][Aun]-OH; thioether N-14), the IC50 was 104 nM.
For `Cc1cccc(C[C@@H]2NC(=O)[C@H](CC(=O)O)NC(=O)[C@H](Cc3ccncc3)NC(=O)[C@H](Cc3ccc(OCC(=O)O)cc3)NC(=O)CSC[C@@H](C(=O)N[C@@H](CCCCN)C(=O)NCCCCCCCCCCC(=O)O)NC(=O)[C@H]([C@@H](C)O)NC(=O)[C@H](C(C)C)NC(=O)[C@H](CC3CCCCC3)NC(=O)[C@H](CCN)NC(=O)[C@@H](CC(C)C)NC(=O)[C@H](CCCN)NC(=O)[C@H](C(C)C)NC(=O)[C@H](Cc3ccc(-c4ccccc4)cc3)NC(=O)[C@H](C(C)C)NC2=O)c1` [Compound 1166] ({CH2CO}-Y(Carboxymethyl)[4Pal]D[Phe(3-Me)]V[Bip]V[Orn][dL][Dab][Cha]VTCK[Aun]-OH; thioether N-14), the IC50 was 28 nM.
In the case of `Cc1cccc(C[C@@H]2NC(=O)[C@H](CC(=O)O)NC(=O)[C@H](Cc3ccncc3)NC(=O)[C@H](Cc3ccc(OCC(=O)O)cc3)NC(=O)CSC[C@@H](C(=O)N[C@@H](CCCNC(=N)N)C(=O)NCCCCCCCCCCC(=O)O)NC(=O)[C@H]([C@@H](C)O)NC(=O)[C@H](C(C)C)NC(=O)[C@H](CC3CCCCC3)NC(=O)[C@H](CCN)NC(=O)[C@@H](CC(C)C)NC(=O)[C@H](CCCN)NC(=O)[C@H](C(C)C)NC(=O)[C@H](Cc3ccc(-c4ccccc4)cc3)NC(=O)[C@H](C(C)C)NC2=O)c1` [Compound 1167] ({CH2CO}-Y(Carboxymethyl)[4Pal]D[Phe(3-Me)]V[Bip]V[Orn][dL][Dab][Cha]VTCR[Aun]-OH; thioether N-14), the IC50 is reported as 80.1 nM.
`Cc1cccc(C[C@@H]2NC(=O)[C@H](CC(=O)O)NC(=O)[C@H](Cc3ccncc3)NC(=O)[C@H](Cc3ccc(OCC(=O)O)cc3)NC(=O)CSC[C@@H](C(=O)N[C@@H](Cc3cnc[nH]3)C(=O)NCCCCCCCCCCC(=O)O)NC(=O)[C@H]([C@@H](C)O)NC(=O)[C@H](C(C)C)NC(=O)[C@H](CC3CCCCC3)NC(=O)[C@H](CCN)NC(=O)[C@@H](CC(C)C)NC(=O)[C@H](CCCN)NC(=O)[C@H](C(C)C)NC(=O)[C@H](Cc3ccc(-c4ccccc4)cc3)NC(=O)[C@H](C(C)C)NC2=O)c1` [Compound 1168] ({CH2CO}-Y(Carboxymethyl)[4Pal]D[Phe(3-Me)]V[Bip]V[Orn][dL][Dab][Cha]VTCH[Aun]-OH; thioether N-14) showed an IC50 of 147 nM.
For `Cc1cccc(C[C@@H]2NC(=O)[C@H](CC(=O)O)NC(=O)[C@H](Cc3ccncc3)NC(=O)[C@H](Cc3ccc(OCC(=O)O)cc3)NC(=O)CSC[C@@H](C(=O)NCCOCCOCC(=O)N[C@@H](CN)C(=O)NCCCCCCCCCCC(=O)O)NC(=O)[C@H]([C@@H](C)O)NC(=O)[C@H](C(C)C)NC(=O)[C@H](CC3CCCCC3)NC(=O)[C@H](CCN)NC(=O)[C@@H](CC(C)C)NC(=O)[C@H](CCCN)NC(=O)[C@H](C(C)C)NC(=O)[C@H](Cc3ccc(-c4ccccc4)cc3)NC(=O)[C@H](C(C)C)NC2=O)c1` [Compound 1169] ({CH2CO}-Y(Carboxymethyl)[4Pal]D[Phe(3-Me)]V[Bip]V[Orn][dL][Dab][Cha]VTC[AEEA][Dap][Aun]-OH; thioether N-14), the IC50 was 28.7 nM.
For `Cc1cccc(C[C@@H]2NC(=O)[C@H](CC(=O)O)NC(=O)[C@H](Cc3ccncc3)NC(=O)[C@H](Cc3ccc(OCC(=O)O)cc3)NC(=O)CSC[C@@H](C(=O)NCCOCCOCC(=O)N[C@@H](CCN)C(=O)NCCCCCCCCCCC(=O)O)NC(=O)[C@H]([C@@H](C)O)NC(=O)[C@H](C(C)C)NC(=O)[C@H](CC3CCCCC3)NC(=O)[C@H](CCN)NC(=O)[C@@H](CC(C)C)NC(=O)[C@H](CCCN)NC(=O)[C@H](C(C)C)NC(=O)[C@H](Cc3ccc(-c4ccccc4)cc3)NC(=O)[C@H](C(C)C)NC2=O)c1` [Compound 1170] ({CH2CO}-Y(Carboxymethyl)[4Pal]D[Phe(3-Me)]V[Bip]V[Orn][dL][Dab][Cha]VTC[AEEA][Dab][Aun]-OH; thioether N-14), the IC50 was 37.9 nM.
`Cc1cccc(C[C@@H]2NC(=O)[C@H](CC(=O)O)NC(=O)[C@H](Cc3ccncc3)NC(=O)[C@H](Cc3ccc(OCC(=O)O)cc3)NC(=O)CSC[C@@H](C(=O)NCCOCCOCC(=O)N[C@@H](CCCN)C(=O)NCCCCCCCCCCC(=O)O)NC(=O)[C@H]([C@@H](C)O)NC(=O)[C@H](C(C)C)NC(=O)[C@H](CC3CCCCC3)NC(=O)[C@H](CCN)NC(=O)[C@@H](CC(C)C)NC(=O)[C@H](CCCN)NC(=O)[C@H](C(C)C)NC(=O)[C@H](Cc3ccc(-c4ccccc4)cc3)NC(=O)[C@H](C(C)C)NC2=O)c1` [Compound 1171] ({CH2CO}-Y(Carboxymethyl)[4Pal]D[Phe(3-Me)]V[Bip]V[Orn][dL][Dab][Cha]VTC[AEEA][Orn][Aun]-OH; thioether N-14) gave an IC50 of 28 nM.
`Cc1cccc(C[C@@H]2NC(=O)[C@H](CC(=O)O)NC(=O)[C@H](Cc3ccncc3)NC(=O)[C@H](Cc3ccc(OCC(=O)O)cc3)NC(=O)CSC[C@@H](C(=O)NCCOCCOCC(=O)N[C@@H](CCCCN)C(=O)NCCCCCCCCCCC(=O)O)NC(=O)[C@H]([C@@H](C)O)NC(=O)[C@H](C(C)C)NC(=O)[C@H](CC3CCCCC3)NC(=O)[C@H](CCN)NC(=O)[C@@H](CC(C)C)NC(=O)[C@H](CCCN)NC(=O)[C@H](C(C)C)NC(=O)[C@H](Cc3ccc(-c4ccccc4)cc3)NC(=O)[C@H](C(C)C)NC2=O)c1` [Compound 1172] ({CH2CO}-Y(Carboxymethyl)[4Pal]D[Phe(3-Me)]V[Bip]V[Orn][dL][Dab][Cha]VTC[AEEA]K[Aun]-OH; thioether N-14) was tested, and the IC50 was 25 nM.
For `Cc1cccc(C[C@@H]2NC(=O)C(CC(=O)O)NC(=O)[C@H](Cc3ccc(OCC(=O)O)cc3)NC(=O)[C@H](CN)NC(=O)CSC[C@@H](C(=O)N[C@@H](CCCNC(=N)N)C(=O)NCCCCCCCCCCC(=O)O)NC(=O)[C@H]([C@@H](C)O)NC(=O)[C@H](C(C)C)NC(=O)[C@H](CC3CCCCC3)NC(=O)[C@H](CCN)NC(=O)[C@@H](CC(C)C)NC(=O)[C@H](CCCN)NC(=O)[C@H](CCCNC(N)=O)NC(=O)C(Cc3ccc(-c4ccccc4)cc3)NC(=O)[C@H](C(C)C)NC2=O)c1` (stereo partly drawn) [Compound 1174] ({CH2CO}-[Dap]Y(Carboxymethyl)[ξD][Phe(3-Me)]V[ξBip][Cit][Orn][dL][Dab][Cha]VTCR[Aun]-OH; thioether N-14), the IC50 was 16.6 nM.
`Cc1cccc(C[C@@H]2NC(=O)C(CC(=O)O)NC(=O)[C@H](Cc3ccc(OCC(=O)O)cc3)NC(=O)[C@H](CN)NC(=O)CSC[C@@H](C(=O)N[C@@H](Cc3cnc[nH]3)C(=O)NCCCCCCCCCCC(=O)O)NC(=O)[C@H]([C@@H](C)O)NC(=O)[C@H](C(C)C)NC(=O)[C@H](CC3CCCCC3)NC(=O)[C@H](CCN)NC(=O)[C@@H](CC(C)C)NC(=O)[C@H](CCCN)NC(=O)[C@H](CCCNC(N)=O)NC(=O)C(Cc3ccc(-c4ccccc4)cc3)NC(=O)[C@H](C(C)C)NC2=O)c1` (stereo partly drawn) [Compound 1175] ({CH2CO}-[Dap]Y(Carboxymethyl)[ξD][Phe(3-Me)]V[ξBip][Cit][Orn][dL][Dab][Cha]VTCH[Aun]-OH; thioether N-14) gave an IC50 of 19.9 nM.
